Values after ≈ are worked out from the molar mass of the structure shown. Values joined by “and” are separate entries in the source; they are usually repeats but may differ in a detail not shown here. Equal values may be shown once. Read-outs that look alike come from different tables or passages of the source.
Key:
[1] = target: T1, Albumax medium (lipid rich bovine serum albumin) (Bos taurus, UniProt P02769); assay: Binding in Albumax medium via ultracentrifugation; assay type: in vitro ADME; conditions: bovine
T1 construct: purchased Gibco, Thermo Fisher Scientific
T1 sequence (P02769 25-607): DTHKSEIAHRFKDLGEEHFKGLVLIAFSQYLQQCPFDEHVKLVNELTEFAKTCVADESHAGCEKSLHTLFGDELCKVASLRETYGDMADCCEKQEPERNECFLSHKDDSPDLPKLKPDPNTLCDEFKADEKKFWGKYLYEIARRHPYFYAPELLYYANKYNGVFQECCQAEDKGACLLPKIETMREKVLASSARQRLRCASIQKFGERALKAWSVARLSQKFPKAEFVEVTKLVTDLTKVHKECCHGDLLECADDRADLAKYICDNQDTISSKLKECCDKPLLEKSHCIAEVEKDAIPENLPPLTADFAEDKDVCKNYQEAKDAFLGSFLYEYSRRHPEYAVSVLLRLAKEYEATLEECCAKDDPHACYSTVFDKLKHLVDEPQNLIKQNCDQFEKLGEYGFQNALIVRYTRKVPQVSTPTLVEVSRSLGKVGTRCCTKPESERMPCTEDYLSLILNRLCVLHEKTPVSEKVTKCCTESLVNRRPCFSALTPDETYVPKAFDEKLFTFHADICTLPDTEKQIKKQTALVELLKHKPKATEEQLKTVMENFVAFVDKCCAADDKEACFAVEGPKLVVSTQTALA
In short: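 Unbound fraction (fu) taken as protein-free supernate concentration over total concentration after ultracentrifuging compound-spiked Albumax at 37 °C (5% or 10% CO2, or air). Analysis used 1:1 mixing with the opposite blank matrix against a common pH 7.4 calibration; degradation judged by start versus end Ctotal.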

[2] = Solubility in biorelevant media; conditions: for solubility at 1 h: 37 °C, fassgf or other biorelevant; for solubility at 1 h / solubility: thermodynamic from solid
In short: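 Measured at 37 °C with 600 rpm orbital shaking in pH 7.4 PBS, FaSSIF-V2, FeSSIF-V2 and FaSSGF. Sampled at 1 h (FaSSGF) or 5–6 h (other media) after double centrifugation; supernatant quantified by LC–MS against calibration standards, triplicate aliquots.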

[3] = Solubility limited absorbable dose (SLAD) calculation with predicted human jejunal Peff; conditions: for solubility: FaSSIF; for An (absorption number): Peff × tres/R, minimum 1; for SLAD: Ssi × V (500 mL) × Mp; for Permeability classification: based on ref 80 and control compounds; for Predicted human Peff: from Caco-2 Papp via calibration plot
Description: Predicted Peff values were obtained from a calibration plot of literature Peff values vs measured Caco-2 Papp using either buffer or plasma as the transport medium (see Results section).

[4] = in vitro; conditions: human, pH 7.4, HLM CLint
In short: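 Compound depletion in human liver microsomes was followed by LC–MS at 2–60 min, with cofactor-free controls. First-order depletion rate constants gave in vitro CLint (µL/min/mg protein), corrected to unbound CLint using measured microsomal fu.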

[5] = Plasma protein binding via ultracentrifugation (UC); assay type: in vitro ADME, human; conditions: pH 7.4
In short: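 Pooled human plasma (3–4 donors) spiked and ultracentrifuged; protein-free supernate gave Cunbound, parallel tubes kept at 37 °C gave Ctotal and stability (start vs end). Samples matrix-matched 1:1 with opposite blank and quantified against a common calibration curve; fu SD by error propagation.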

[6] = Octanol/pH 7.4 buffer partition coefficient, shake flask; conditions: pH 7.4
In short: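 Octanol stocks (3-30 mg/mL) were diluted 3- and 10-fold and shaken with equal volumes of pH 7.4 phosphate buffer (67 mM, in 43 mM NaCl) at 37 °C. Both phases were quantified by LC-MS against calibration standards. The coefficient is the mean octanol/buffer concentration ratio, with two time points confirming equilibrium.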

[7] = target: CYP2C9 (Homo sapiens, UniProt P11712); assay: Cytochrome P450 inhibition in human liver microsomes
Sequence of CYP2C9 (P11712 whole entry, canonical isoform): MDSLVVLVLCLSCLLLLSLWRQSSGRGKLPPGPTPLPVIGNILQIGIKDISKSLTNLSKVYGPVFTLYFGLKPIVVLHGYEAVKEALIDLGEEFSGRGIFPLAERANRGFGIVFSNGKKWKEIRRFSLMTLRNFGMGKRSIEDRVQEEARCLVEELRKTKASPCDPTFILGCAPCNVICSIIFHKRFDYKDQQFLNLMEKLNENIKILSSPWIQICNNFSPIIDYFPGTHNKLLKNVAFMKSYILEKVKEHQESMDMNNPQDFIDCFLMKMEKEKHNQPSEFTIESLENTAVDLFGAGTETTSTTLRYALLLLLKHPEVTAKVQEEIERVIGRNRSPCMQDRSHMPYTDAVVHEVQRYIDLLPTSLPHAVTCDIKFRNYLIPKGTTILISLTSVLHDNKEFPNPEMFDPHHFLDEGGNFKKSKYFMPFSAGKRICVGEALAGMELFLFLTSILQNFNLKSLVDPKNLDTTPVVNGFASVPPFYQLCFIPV
In short: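 Substrate-specific interaction method in human liver microsomes: the test compound's effect on production of a single isoform-dependent metabolite, quantified by LC–MS using diazepam as internal standard, is reported as percent inhibition of enzyme activity. Substrate Km was determined under the same incubation conditions.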

[8] = phosphate buffered saline pH 7.4, 37 °C, pH 7.4, aqueous buffer
[9] = human, neat pooled plasma, ultracentrifugation, neat plasma, read-out: Fraction unbound, human plasma
[10] = human plasma, fraction unbound, read-out: Plasma fu
[11] = octanol/pH 7.4 phosphate buffered saline
[12] = liver microsomes, human liver microsomes, average of n = 2 replicates, < 7 means < 15% loss over 60 min
[13] = FaSSGF, FaSSIF-V2, FeSSIF-V2 and PBS pH 7.4, 37 °C, pH 7.4, aqueous buffer

Row | Compound | fraction unbound at […], 500 ng/mL ([1]; isolated protein, pH 7.4) | solubility at 1 h ([2]; FaSSGF) | solubility ([2]; FaSSIF-V2, 37 °C, fassif) | solubility ([2]; FeSSIF-V2, 37 °C, fessif) | solubility [2, 8] | solubility [3] [µg/mL] | An (absorption number) [3] | SLAD [3] [mg] | Permeability classification [3] | Predicted human Peff [3] | fraction unbound at […] [5, 9] | logD ([6]; octanol/pH 7.4 buffer) | IC50 [7] [µM] | microsomal CLint at 1 µM [4, 12] [µL/min/mg] | CYP2C9 % inhibition at max conc ([7]; microsomes) | other results
1 | CC(C)(N)CNC(=O)C[C@H]1CC[C@]2(CC1)OO[C@]1(O2)C2CC3CC(C2)CC1C3 [OZ277, Arterolane] | 0.29 ± 0.021 | > 2000 µg/mL and > 5000 µM | > 2000 µg/mL and > 5100 µM | > 2000 µg/mL and > 5000 µM | 198 µg/mL and 504 µM | > 2000 | 3.2 | > 3240 | High (> 85% absorption (high)) | 2.7 10^−4 cm/s | 0.086 ± 0.008 | 2.6 | > 20 |  |  | FaSSGF solubility ([2]; FaSSGF): > 2000 µg/mL; FaSSIF solubility ([2]; FaSSIF): > 2000 µg/mL; FeSSIF solubility ([2]; FeSSIF): > 2000 µg/mL; microsomal CLint at 1 µM ([4]; microsomes): < 7 µL/min/mg; fraction unbound at […] [5, 10]: 0.086; logD [6, 11]: 2.6
2 | Cc1nc(Nc2ncc(N3CCN(C)[C@H](C)C3)c(Nc3cc(C)n(C)n3)n2)cc(C2CC2)c1F [MMV253] | 0.48 ± 0.026 | > 2000 µg/mL and > 4300 µM | 569 µg/mL and 1220 µM | > 2000 µg/mL and > 4300 µM | 19 µg/mL and 40.8 µM | 569 (≈ 1220 µM) | 8.1 | 2300 | High (> 85% absorption (high)) | 6.8 10^−4 cm/s | 0.067 | 4.42 | > 20 | 13.2 | nmi | 
3 | [H]/N=C(\N/C(=N/[H])Nc1ccc(Cl)cc1)NC(C)C [Proguanil] | 0.8 ± 0.021 | > 2000 µg/mL and > 7880 µM | > 2000 µg/mL and > 7880 µM | > 2000 µg/mL and > 7880 µM | > 2000 µg/mL and > 7880 µM | > 2000 | 1.0 | > 1000 | Intermediate (50–84% absorption (intermediate)) | 0.71 10^−4 cm/s | 0.34 ± 0.01 | 0.27 | > 20 | < 7 | nmi | solubility [2, 13]: > 2000 µg/mL
4 | C[C@H]1[C@@H](O)O[C@@H]2O[C@@]3(C)CC[C@H]4[C@H](C)CC[C@@H]1[C@@]24OO3 [Dihydroartemisinin] |  | 140 µg/mL and 492 µM |  |  |  |  | 5.2 | 413 | High (> 85% absorption (high)) | 4.4 10^−4 cm/s |  | 2.3 | > 20 | 16.6 | nmi | fraction unbound at […], 500 ng/mL ([1]; isolated protein, pH 7.4, instability evident, estimate only): 0.34 ± 0.018; fraction unbound at […] ([5]; human, pooled plasma, ultracentrifugation, instability evident, estimate only, read-out: Fraction unbound, human plasma): 0.21 ± 0.01; fraction unbound at […] [5, 10]: 0.21; logD [6, 11]: 2.3
5 | N#Cc1cc(NC(=O)[C@H]2c3ccccc3C(=O)N(CC(F)(F)F)[C@@H]2c2cccnc2)ccc1F [SJ733] | 0.4 ± 0.04 | > 2000 µg/mL and > 4270 µM | 101 µg/mL and 216 µM | 119 µg/mL and 254 µM | 115 µg/mL and 246 µM | 101 (≈ 216 µM) | 2.2 | 109 | High (> 85% absorption (high)) | 1.8 10^−4 cm/s | 0.17 | 3.9 | > 20 | 142 |  | inhibition at 20 µM ([7]; human, microsomes, pH 7.4): 33%
6 | CS(=O)(=O)c1ccc(-c2cnc(N)c(-c3ccc(C(F)(F)F)nc3)c2)cc1 [MMV048] | 0.46 ± 0.022 | 1200 µg/mL and 3040 µM | 6.73 µg/mL and 17.1 µM | 7.47 µg/mL and 19 µM | 4.52 µg/mL and 11.5 µM | 6.7 (≈ 17 µM) | 4.5 | 15 | High (> 85% absorption (high)) | 3.8 10^−4 cm/s | 0.17 | 2.5 | > 20 | < 7 | nmi | 
7 | OC(c1cc(C(F)(F)F)nc2c(C(F)(F)F)cccc12)C1CCCCN1 (centres unmarked) [Mefloquine] |  | 740 µg/mL and 1960 µM | 584 µg/mL and 1540 µM | > 2000 µg/mL and > 5200 µM | 290 µg/mL and 767 µM | 584 (≈ 1540 µM) |  |  | High (> 85% absorption (high)) |  | 0.058 | 2.7 |  |  | nmi | fraction unbound at […], 500 ng/mL ([1]; Albumax medium, pH 7.4): 0.27 ± 0.019; microsomal CLint at 1 µM ([4]; microsomes): < 7 µL/min/mg
8 | CC[C@H]1OC(=O)[C@H](C)[C@@H](O[C@H]2C[C@@](C)(OC)[C@@H](O)[C@H](C)O2)[C@H](C)[C@@H](O[C@@H]2O[C@H](C)C[C@H](N(C)C)[C@H]2O)[C@](C)(O)C[C@@H](C)CN(C)[C@H](C)[C@@H](O)[C@]1(C)O [Azithromycin] | 0.76 ± 0.065 | 1180 µg/mL and 1570 µM | 1440 µg/mL and 1930 µM | > 2000 µg/mL and > 2670 µM | > 2000 µg/mL and > 2670 µM |  | 1.0 | 720 | Low (< 50% absorption (low)) | 0.16 10^−4 cm/s | 0.71 | 1.1 | > 20 | < 7 | nmi | 
9 | CC1(C)c2nc(-c3ccc(F)cc3)c(Nc3ccc(F)cc3)n2CCN1C(=O)CN [KAF156] | 0.38 ± 0.017 | > 2000 µg/mL and > 4850 µM | 1600 µg/mL and 3880 µM | > 2000 µg/mL and > 4850 µM | 560 µg/mL and 1360 µM | 1600 (≈ 3890 µM) | 3.5 | 2780 | High (> 85% absorption (high)) | 2.9 10^−4 cm/s | 0.11 | 2.06 |  | 14.7 |  | solubility [2, 13]: 400 to 500 µg/mL (≈ 972 to 1220 µM)
10 | CC(C)NC(=N)NC(=N)Nc1ccc(Cl)c(Cl)c1 [Chlorproguanil] | 0.5 ± 0.02 | > 2000 µg/mL and > 6940 µM | 1100 µg/mL and 3810 µM | 1670 µg/mL and 5780 µM | 1420 µg/mL and 4930 µM | 1100 (≈ 3820 µM) | 1.8 | 998 | High (> 85% absorption (high)) | 1.5 10^−4 cm/s | 0.1 ± 0.007 | 1.1 | > 20 | < 7 | nmi | solubility [2, 13]: > 2000 µg/mL
11 | CCNCc1cc(Nc2ccnc3cc(Cl)ccc23)ccc1O [Desethylamodiaquine] | 0.75 ± 0.074 |  |  |  |  |  |  |  |  |  | 0.17 ± 0.002 | 1.3 | > 18 | 13.3 | nmi | 
12 | C[C@H]1[C@H](N2CCS(=O)(=O)CC2)O[C@@H]2O[C@@]3(C)CC[C@H]4[C@H](C)CC[C@@H]1[C@@]24OO3 [Artemisone] | 0.46 ± 0.013 | 89.1 µg/mL and 222 µM | 115 µg/mL and 286 µM | 278 µg/mL and 692 µM | 86.1 µg/mL and 214 µM | 115 (≈ 286 µM) | 6.0 | 345 | High (> 85% absorption (high)) | 5.0 10^−4 cm/s | 0.12 ± 0.006 | 2.82 |  | 97.7 |  | 
